Entries after “also recorded” stand apart in the source; their conditions may differ. Where a name gives a salt, the structure may show the parent alone. Read-outs that look alike come from different tables or passages of the source.
Tests used:
GPBP and VAPA = assay: Colocalization of GPBP with VAPA in C2C12 cells; assay type: cell-based, Mice; conditions: C2C12, 10 mM, 16 hours; p=0.0093 Control vs. SLN1, p=0.0001 Control vs. SLN10, p=0.0283 SLN10 vs SLN1
Description: FIG. 74A. […] In FIG. 74A, C2C12 cells were differentiated for 3 days in DMEM supplemented with 2% horse serum. […] Subsequently, cells were washed with PBS (3×5 minutes) and incubated with mouse secondary anti-IgG antibodies, conjugated with Alexa Fluor 488, and goat anti-IgG antibodies, conjugated with TRITC (Molecular Probes) for 1 hour at RM in the dark; then, cells were washed again with PBS (3×5 minutes) and mounted for confocal microscopy observation. Afterwards, the images obtained were analyzed with the WCIF ImageJ software to quantify colocalization quotient between GPBP and VAPA. In the third column, the points at which there are similar expression levels of both GPBP and VAPA appear in white.

C2C12 myotubes = assay: Glucose concentration in C2C12 myotube culture medium; assay type: cell-based, Mice; conditions: for glucose consumption in normoglycemia: glucose adjusted to 100 mg/100 mL, 10 mM (FIGS. 68A-B)
Description: FIG. 67. Hypoglycemic activity ex vivo. Glucose concentration in myocyte culture medium, treated with the control, SLN1, or SLN10. […]. The final glucose concentration in the culture medium was determined with a Glucocard (Arkray). […].
Glucose concentration in culture media was determined with a Glucocard (Arkray). […].
For this purpose, the evolution of glucose uptake was studied in the culture medium of myotubes in response to different molecules studied (FIG. 67).

(NZB×NZW) F1 mice = assay: Proteinuria and renal lupus in (NZB×NZW) F1 mice; assay type: in vivo; conditions: for number of mice with a pathological grade above 3: kidneys at week 35 (FIG. 84)
Description: FIG. 81. Proteinuria evolution in (NZB×NZW) F1 mice, treated with a control, SLN1, and SLN10. […] Urine samples were taken periodically and protein concentration was determined. Proteinuria mean value (±SEM) for the mice groups mentioned above is shown in the graph. […] FIG. 82. Criteria used to determine the renal pathological grade in mice, by staining with haematoxylin-eosin.
FIG. 83. […] (NZB×NZW) F1 mice in the assay described in FIG. 81 were sacrificed at week 35; their kidneys were analyzed by staining with haematoxylin-eosin, and their pathological grade was estimated according to criteria in FIG. 82. The number of mice that developed low/moderate (<300 mg/dl) or high (>300 mg/dl) proteinuria at the end of the assay, classified according to their pathological grade, is shown.
FIG. 84. […] The renal pathological grade of each one of the mice in the assay described in FIG. 81, grouped according to treatment, is shown. Intermediate positions represent animals with renal lesions between the higher or lower grades.
FIG. 85. […] (NZB×NZW) F1 mice in the assay described in FIG. 81 were subjected to blood samples periodically, and antibodies titers (anti-ssDNA IgG) were determined using the Mouse anti-ssDNA ELISA kit (Alpha Diagnostic International), following the manufacturer's instructions. In the graph, the mean (±SEM) for each mice group over time is shown.
FIG. 86. cGPBP levels increase and decrease before the introduction of proteinuria in (NZB×NZW) F1 mice. […] Mean values (±SEM) for cGPBP in the mice groups during the indicated weeks.

[1] = molecular target: T1, GPBP, LKB1/STRADα/MO25, AMPK, AS160 (Homo sapiens, UniProt Q9Y5P4); assay: In vitro phosphorylation of GPBP with LKB1 complex, AMPK and AS160
T1 sequence (Q9Y5P4 1-624): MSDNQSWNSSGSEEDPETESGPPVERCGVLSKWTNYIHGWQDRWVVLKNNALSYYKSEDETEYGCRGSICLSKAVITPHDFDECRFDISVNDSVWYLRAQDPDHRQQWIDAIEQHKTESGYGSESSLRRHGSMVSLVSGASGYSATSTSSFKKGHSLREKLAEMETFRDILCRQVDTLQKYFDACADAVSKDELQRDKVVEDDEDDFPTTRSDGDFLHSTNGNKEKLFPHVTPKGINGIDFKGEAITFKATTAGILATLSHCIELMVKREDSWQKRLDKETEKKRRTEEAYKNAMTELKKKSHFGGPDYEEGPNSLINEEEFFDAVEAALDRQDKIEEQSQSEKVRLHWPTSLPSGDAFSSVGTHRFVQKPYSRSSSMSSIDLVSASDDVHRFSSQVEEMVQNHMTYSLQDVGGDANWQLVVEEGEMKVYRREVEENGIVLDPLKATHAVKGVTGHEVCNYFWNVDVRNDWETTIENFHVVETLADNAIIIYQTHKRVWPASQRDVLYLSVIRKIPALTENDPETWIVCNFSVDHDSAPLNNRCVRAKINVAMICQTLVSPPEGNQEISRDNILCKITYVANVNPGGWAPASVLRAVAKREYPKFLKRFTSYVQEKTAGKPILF
Description: (§1) Reactions were stopped with a reducing loading buffer, analyzed by SDS-PAGE, and electrotransferred to PVDF membrane. Membranes were exposed to autoradiography during the indicated exposition times (exp.). Arrows show the identity of the bands observed in autoradiographs.
(§2) Arrows and lines to the right of the image show the identity of phosphorylated polypeptides. Upper images and those in the middle come from autoradiographs taken at several exposure times.
(§3) To understand this phenomenon at the molecular level, we conducted in vitro phosphorylation experiments with GPBP and the commercial protein complex LKB1/STRADα/MO25 (Millipore) (FIG. 72). STRADα and MO25 are supporters necessary to activate LKB1. […] It cannot be excluded, however, that the simple interaction of kinases activates corresponding autophosphorylation processes.
(§4) To further explain the above results, a more physiological approach in the in vitro assays was performed. A combination of LKB1/STRADα, GPBP, and AMPK/AS160 was used, i.e., each kinase was added with its own substrate except GPBP, which acted as both an enzyme and substrate at the same time (autophosphorylation) (FIG. 73).

[2] = Metformin association with lysine in aqueous solution (1H NMR titration); assay type: physicochemical; conditions: 1×PBS, pH 7.5, WINEQNMR2
Description: Specifically, 500 μL of a 10 mM lysine solution in buffer […] were introduced in an NMR tube, and the pH was adjusted to 7.5; moreover, […] of deuterated methanol was added, and the NMR proton spectrum was recorded (^1H). […] Increasing amounts of the metformin dissolution were added to the amino acid dissolution, and the ^1H NMR spectrum was recorded after each addition until reaching 20 equivalents.
The alpha proton signal of lysine (triplet to 3.76 ppm, FIG. 100) first shifted to lower […] and then to higher values. […] The complexation constant was calculated to be 828±42 (FIG. 101).

GPBP = GPBP Western blot of treated A549 cells; assay type: cell-based; conditions: 10 mM, 3 hours
Description: After the incubation time, cells were washed twice with PBS and lysed in 25 mM Tris-HCl, pH 7.4, 140 mM NaCl, 3 mM KCl, 20 mM NaF, 1 mM PMSF, 10 μg/mL leupeptin, 1% Triton X-100 for 20 min at 4° C. The lysates were centrifuged at 20,000×g for 10 min at 4° C., supernatants were recovered, and protein concentration determined
Equal amounts of each lysate (40 μg) were analyzed by Western blot, with monoclonal antibodies against GPBP N27 (Fibrostatin SL) and against tubulin (Sigma). Electrophoresis was performed in polyacrylamide gel (6.5%) with SDS, after which electroblotting was carried out to PVDF membrane (Immobilon P, Millipore Merck). After transfer, the membranes were blocked in 5% skim milk in 25 mM Tris-HCl, pH 7.5, 150 mM NaCl, 0.05% Tween-20 (TBST) for 45 min, and then incubated with primary antibodies diluted in blocking solution for 16 hours at 4° C. Thereafter, the membranes were washed with TBST (3×5 minutes) and incubated with secondary antibodies against mouse IgG, conjugated to horseradish peroxidase (HRP) (Sigma) for 1 hours at room temperature while stirring. After further washes with TBST (3×5 minutes), the chemiluminescence disclosure was performed by using the ECL Prime reagent (GE Healthcare) and the image generation system ImageQuant LAS 4000 Mini (GE Healthcare).
The Western blots disclosure images were analyzed with the ImageJ WCIF program.

[3] = test system: RAW264.7 macrophages and L1 adipocytes co-cultures; assay: Glucose consumption in macrophage and adipocyte co-cultures; assay type: cell-based, Mice; conditions: 10 mM, 30 hours (FIG. 80)
[4] = test system: GPBP, LKB1/STRADα/MO25, AMPK, AS160; assay: In vitro phosphorylation of GPBP with LKB1 complex, AMPK and AS160; conditions: LKB1 complex without GPBP
Description: as §1, §2, §3, §4

insulin receptor = assay: Insulin receptor β subunit in plasma membrane of C2C12 myotubes; assay type: cell-based, Mice; conditions: 10 mM, 3 hours (FIG. 76), listed as SLN10
Description: FIG. 76. Metformin lysinate promotes the accumulation of insulin receptor β subunit in plasma membrane. C2C12 cells were differentiated for 5 days in DMEM supplemented with 2% horse serum; then, cultures were treated for 3 hours with SLN1 or SLN10 10 mM, or with vehicle (control) at 37° C. Similar quantities of each extract were analyzed by Western blot with insulin receptor subunit (IRP) specific antibodies.

Row | Compound | colocalization of GPBP with VAPA (GPBP and VAPA) | glucose consumption in normoglycemia (C2C12 myotubes) | deaths ((NZB×NZW) F1 mice; from week 33 onwards) | number of mice with a pathological grade above 3 ((NZB×NZW) F1 mice) | GPBP autophosphorylation in presence of LKB1 mix, AMPK and AS160 [1] | complexation constant [2] | anti-hyperglycaemic activity (glucose in myotube medium) (C2C12 myotubes; initial glucose 450 mg/100 mL, 10 mM, last 18 hours (FIG. 67), listed as SLN10) | GPBP polypeptides reactive with N27 (GPBP; pH 7.5, listed as SLN10) | GPBP polypeptides reactive with N27 (GPBP; pH 9.3) | proteinuria ((NZB×NZW) F1 mice; 100 mg/kg/day, IP 5 days from week 16, then oral in drinking water, vs control, listed as SLN10) | autoantibody (anti-ssDNA IgG) titers ((NZB×NZW) F1 mice; FIG. 85, Control vs. SLN10 p=0.0238) | circulating GPBP levels (cGPBP) ((NZB×NZW) F1 mice; plasma, before steady increase of proteinuria (FIG. 86)) | glucose consumption of co-cultures [3] | LKB1 autophosphorylation and STRADα phosphorylation [4] | GPBP autophosphorylation in presence of LKB1 mix, AMPK and AS160 ([1]; FIG. 73, listed as SLN10) | incorporation of phosphate by LKB1/STRADα ([1]; GPBP present in the reaction mixture) | accumulation of insulin receptor in the plasma membrane (insulin receptor)
1 | CN(C)C(=N)N=C(N)N [Metformin hydrochloride, metformin hydrochloride, reference compound] | reduced significantly | equally induce glucose consumption | began to die | 7 | activates GPBP phosphorylation; also recorded: stimulated GPBP autophosphorylation |  |  |  |  |  |  |  |  |  |  |  | 
2 | metformin lysinate | reduced significantly; also recorded: more intensely than SLN1 | equally induce glucose consumption |  | 3 |  | 828±42 | greater effect than SLN1; also recorded: higher than that of compound SLN1 | more abundant in culture extracts treated with SLN10; also recorded: shifts to positions of less molecular weight | shifts to positions of less molecular weight | most effective; also recorded: significantly less proteinuria; also recorded: reduced proteinuria | reduces antibodies titers; also recorded: reduced titers by half | showed no increase | stronger | trigger a discrete LKB1 autophosphorylation | inhibit it increasingly; also recorded: inhibited it progressively | inhibited the incorporation of phosphate by LKB1/STRADα efficiently | promotes the accumulation of insulin receptor in the plasma membrane
